The values that follow come from patent US9670142B2, “1,3-diaminocyclopentane carboxamide derivatives” (Merck Patent GmbH, priority 2013, dated 2017).

The target of the assay is human fatty acid synthase FASN (Homo sapiens (Human), UniProt P49327). The assay is described as follows: Biochemical activity testing of human fatty acid synthase FASN (NADPH fluorescence intensity enzyme assay). Particulars: human recombinant full-length fatty acid synthase. A digest of the protocol: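 In-house Sf9-expressed full-length enzyme (3 μL of 40 nM) in 50 mM potassium phosphate pH 7.0 with glutathione, BSA and Tween-20, plus NADPH (2 μL of 200 μM), preincubated ≥15 min with compound (10 concentrations from 30 μM final, 1% DMSO). Acetyl-CoA/malonyl-CoA added; NADPH fluorescence (ex 340/em 460 nm) read before and after 30 min at room temperature, difference used for IC50.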
human fatty acid synthase FASN, sequence (P49327 whole entry): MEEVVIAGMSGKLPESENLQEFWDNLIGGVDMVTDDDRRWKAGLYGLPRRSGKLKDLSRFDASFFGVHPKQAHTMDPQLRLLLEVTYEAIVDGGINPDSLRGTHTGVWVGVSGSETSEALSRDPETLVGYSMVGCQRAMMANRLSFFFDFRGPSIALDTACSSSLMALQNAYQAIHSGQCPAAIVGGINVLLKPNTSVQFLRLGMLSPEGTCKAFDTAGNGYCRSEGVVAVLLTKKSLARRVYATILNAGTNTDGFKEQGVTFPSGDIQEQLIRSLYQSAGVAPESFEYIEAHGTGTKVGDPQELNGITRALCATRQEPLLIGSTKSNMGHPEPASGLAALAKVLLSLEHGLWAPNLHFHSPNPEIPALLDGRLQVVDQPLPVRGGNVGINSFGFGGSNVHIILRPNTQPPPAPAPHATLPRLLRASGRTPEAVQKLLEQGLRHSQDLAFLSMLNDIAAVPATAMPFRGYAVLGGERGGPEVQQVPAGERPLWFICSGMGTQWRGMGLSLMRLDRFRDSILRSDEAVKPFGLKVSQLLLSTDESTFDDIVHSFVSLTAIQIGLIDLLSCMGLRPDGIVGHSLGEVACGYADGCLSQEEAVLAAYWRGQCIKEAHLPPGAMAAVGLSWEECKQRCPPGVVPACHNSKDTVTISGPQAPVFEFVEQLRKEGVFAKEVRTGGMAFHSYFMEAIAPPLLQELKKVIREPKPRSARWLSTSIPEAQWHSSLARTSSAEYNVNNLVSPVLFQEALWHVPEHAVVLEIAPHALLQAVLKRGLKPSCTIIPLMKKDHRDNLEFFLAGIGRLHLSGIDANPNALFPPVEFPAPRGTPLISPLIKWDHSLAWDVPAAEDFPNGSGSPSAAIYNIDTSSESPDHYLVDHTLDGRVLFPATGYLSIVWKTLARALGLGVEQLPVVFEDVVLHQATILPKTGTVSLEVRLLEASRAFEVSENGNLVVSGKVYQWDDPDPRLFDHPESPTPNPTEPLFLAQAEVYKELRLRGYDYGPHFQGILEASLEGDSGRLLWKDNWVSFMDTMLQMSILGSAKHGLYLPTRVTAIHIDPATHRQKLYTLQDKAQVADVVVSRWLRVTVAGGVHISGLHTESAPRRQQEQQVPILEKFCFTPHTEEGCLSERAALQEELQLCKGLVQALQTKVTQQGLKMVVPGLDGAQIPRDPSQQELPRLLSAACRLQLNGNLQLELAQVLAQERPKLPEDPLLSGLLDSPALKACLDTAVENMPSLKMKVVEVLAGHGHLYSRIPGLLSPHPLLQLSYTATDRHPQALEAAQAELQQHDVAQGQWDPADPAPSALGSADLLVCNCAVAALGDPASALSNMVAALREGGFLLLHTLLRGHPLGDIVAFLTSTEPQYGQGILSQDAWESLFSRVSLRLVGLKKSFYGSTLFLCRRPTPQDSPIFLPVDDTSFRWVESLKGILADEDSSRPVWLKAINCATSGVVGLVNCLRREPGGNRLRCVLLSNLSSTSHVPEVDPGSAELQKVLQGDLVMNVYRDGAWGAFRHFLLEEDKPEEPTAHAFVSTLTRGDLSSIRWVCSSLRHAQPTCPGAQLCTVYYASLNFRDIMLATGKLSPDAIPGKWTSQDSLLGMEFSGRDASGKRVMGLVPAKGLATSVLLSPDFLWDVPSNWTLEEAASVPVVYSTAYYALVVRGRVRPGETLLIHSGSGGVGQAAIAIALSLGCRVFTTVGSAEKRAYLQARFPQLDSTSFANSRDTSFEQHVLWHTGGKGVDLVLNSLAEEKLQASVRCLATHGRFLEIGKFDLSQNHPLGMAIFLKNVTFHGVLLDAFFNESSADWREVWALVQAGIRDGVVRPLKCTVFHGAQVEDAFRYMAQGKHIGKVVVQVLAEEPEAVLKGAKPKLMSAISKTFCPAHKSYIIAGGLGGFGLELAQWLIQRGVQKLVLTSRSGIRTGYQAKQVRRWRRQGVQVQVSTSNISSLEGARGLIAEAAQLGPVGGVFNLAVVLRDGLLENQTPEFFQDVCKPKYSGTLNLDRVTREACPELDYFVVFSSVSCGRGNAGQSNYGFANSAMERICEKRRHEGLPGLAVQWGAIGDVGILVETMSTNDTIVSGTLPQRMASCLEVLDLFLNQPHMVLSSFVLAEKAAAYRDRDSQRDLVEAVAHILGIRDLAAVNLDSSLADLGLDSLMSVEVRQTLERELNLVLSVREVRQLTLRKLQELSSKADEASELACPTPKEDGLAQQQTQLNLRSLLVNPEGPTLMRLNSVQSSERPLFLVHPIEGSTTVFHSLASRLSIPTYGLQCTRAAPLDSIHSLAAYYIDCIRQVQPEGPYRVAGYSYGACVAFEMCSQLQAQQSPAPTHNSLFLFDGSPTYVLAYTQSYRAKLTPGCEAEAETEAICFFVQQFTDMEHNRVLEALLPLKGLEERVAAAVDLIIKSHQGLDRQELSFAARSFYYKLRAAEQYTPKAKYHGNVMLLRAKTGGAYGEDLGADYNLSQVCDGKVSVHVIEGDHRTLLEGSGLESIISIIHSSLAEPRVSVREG

A value given as a limit tells only on which side of the number the result lay.

Take `CCC(=O)N[C@H]1CC[C@@H](N(C)C(=O)c2ccc(-c3cnc4ccccc4c3)cc2)C1` [Compound A72, N-methyl-N-((1R,3S)-3-propionylamino-cyclopentyl)-4-quinolin-3-yl-benzamide]: the IC50 was below 0.3 µM.

In the case of `CCC(=O)N[C@H]1CC[C@@H](N(C)C(=O)c2ccc(-c3cc(F)c(C#N)c(F)c3)cc2)C1` [Compound A61, 4′-cyano-3′,5′-difluoro-biphenyl-4-carboxylic acid methyl-((1R,3S)-3-propionylamino-cyclopentyl)-amide], the IC50 is 3 to 50 µM.
